Consider 5 molecules from patent publication US7507753B2, “Biaryl compound and use thereof” (Takeda Chemical Industries Ltd., priority 2001, dated 2009).

Counter-ions that a name gives are not always drawn.

For the experiment, the target named is T1, Human MC4R (Homo sapiens, UniProt P32245).
T1 construct: expressed in transfected cells; plasmid pMC4R in vector pMSR alpha neo
T1 sequence (P32245 whole entry): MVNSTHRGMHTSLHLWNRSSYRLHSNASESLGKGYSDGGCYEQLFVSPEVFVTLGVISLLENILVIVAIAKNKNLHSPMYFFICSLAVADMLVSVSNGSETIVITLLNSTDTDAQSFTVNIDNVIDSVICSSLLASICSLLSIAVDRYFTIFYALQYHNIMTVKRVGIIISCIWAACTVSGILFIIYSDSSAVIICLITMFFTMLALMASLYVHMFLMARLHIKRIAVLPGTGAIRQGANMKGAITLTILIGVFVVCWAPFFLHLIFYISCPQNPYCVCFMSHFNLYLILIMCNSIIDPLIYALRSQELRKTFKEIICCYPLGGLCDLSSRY
The experiment in a line: [125I]-[Nle4,D-Phe7]-α-MSH binding inhibition in CHO/MC4R cells. The conditions noted are these: test compound 10 μM, 100 pM [125I]-[Nle4,D-Phe7]-α-MSH, room temperature, 60 minutes. On the procedure:
(1) Cloning of Human MC4R
Cloning of MC4R gene was conducted from human brain cDNA by PCR method. Using 0.5 ng of brain cDNA (Clontech, Quick-lone cDNA) as a genetic template, primer sets prepared by referring to MC4R gene base sequence described in Birkenbach M. et al. (J. Virol, 67(4),2209-2220(1993)), i.e., primer-1: 5′-[…]-3′ [Sequence No.:1] and primer-2: 5′-[…]-3′ [Sequence No.:2] were added in amounts of 50 pmol, respectively, and, the PCR reaction was carried out using TaKaRa LA Taq(Takara Shuzo)in Gene Amp PCR System 9600 (Applied Biosystems)(Reaction conditions: 35 cycles of 95° C. for 1 minute, 62° C. for 1 minute, and 72° C. for 3 minutes).
(2) Preparation of Expression Plasmid for Human MC4R
After the PCR fragments obtained above were digested by restriction enzymes Eco RI (Takara Shuzo) and Sal I (Takara Shuzo), DNA fragments were collected by agarose gel electrophoresis. The DNA fragments and an expression plasmid for animal cells pMSR a neo (Japanese Unexamined Patent Application Publication No. 2000-281685, WO 00/44756), which was previously digested by Eco RI and Sal I, were mixed and ligated using a DNA Ligation Kit Ver. 2 (Takara Shuzo). Transformation of E. coli JM109 competent cells gave plasmid pMC4R.
(3) Introduction of the Expression Plasmid for Human MC4R into CHO-K1 Cells and Expression thereof
CHO-KI cells grown in 150 cm^2 of a cell culture flask (Corning Costar) using Ham F12 medium (GIBCO BRL) containing 10% fetal bovine serum (GIBCO BRL) were collected by using 0.5 g/L trypsin-0.2 g/L EDTA (GIBCO BRL). The cells were washed with PBS (GIBCO BRL), centrifuged (1000 rpm, 5 minutes), and were suspended in PBS. Then, the DNA was introduced into the cells using Gene Pulser (BioRad) according to the following conditions. Namely, 1×10^7 cells and 15 μg of human MC4R expression plasmid pMC4R were placed in a 0.4-cm gap cuvette, and the mixture was electropolated under 0.25 kV of electric voltage, and 960 μF of capacitance. Cells were then transferred to Ham F12 medium containing 10% fetal bovine serum. After incubation for 24 hours, cells were collected, centrifuged, and suspended in Ham F12 medium containing 10% fetal bovine serum and Geneticin (GIBCO BRL) at a concentration of 500 μg/ml. Cells were diluted to a concentration of 10^4 cells/ml, and inoculated in 96-well plate (Corning Costar) to obtain Geneticin-resistant strains.
The Geneticin-resistant strains were grown in 96-well plates (OPAQUE PLATE 3917, Costar), and MC4R-expressing cells were selected from the resistant strains. Namely, in an assay buffer (20 mM HEPES (Dojindo Laboratories, Inc.), 0.5% BSA, 0.05% NaN3) containing 200 pM [^125I]-[Nle4,D-Phe7]-α-Melanocyte Stimulating Hormone (Daiichi Pure Chemicals Co., Ltd.), the cells were subjected to binding reaction at room temperature for 60 minutes. After the assay buffer was removed by inspiration, the cells were washed with ice-cooled PBS, and then stirred after adding 100 μl/well of MicroScint-20 (Packard Industry Company, Inc.) to each well. Subsequently, the cells were counted for radioactivity using a Top Count (Packard) to select CHO/MC4R strains, the cells to which [^125I]-[Nle4,D-Phe7]-α-Melanocyte Stimulating Hormone bound specifically. […]
The CHO/MC4R strains were inoculated in 96 well microplate at a concentration of 1×10^4 cells/well, and grown for 72 hours. […] Then, 100 μl MicroScint 20 (Packerd) was added to each well, and the radioactivity of each well was measured by Top Count (Packard). […]
Regarding `CC(c1cccc(-c2ccccc2C(=O)NCCN)c1)N(C(=O)Cc1ccc2ccccc2c1)C1CCN(Cc2ccccc2)CC1` (centres unmarked) [Example 1, N-(2-aminoethyl)-3′-[1-{N-(1-benzylpiperidin-4-yl)-N-(2-naphthylacetyl)amino}ethyl][1,1′-biphenyl)-2-carboxamide dihydrochloride], the “Binding Inhibitory Ratio” value came to 96%.

`CC(c1cccc(-c2ccccc2C(=O)NCCN)c1)N(C(=O)Cc1ccc(Br)cc1)C1CCN(Cc2ccccc2)CC1` (centres unmarked) [Example 2, N-(2-aminoethyl) -3′-[1-{N-(1-benzylpiperidin-4-yl)-N-(4-bromophenylacetyl)amino}ethyl][1,1′-biphenyl]-2-carboxamide dihydrochloride]: the “Binding Inhibitory Ratio” value is 97%.

For the molecule `CC(c1cccc(-c2ccccc2C(=O)NCCN)c1)N(C(=O)Cc1ccc(Cl)cc1)C1CCN(Cc2ccccc2)CC1` (centres unmarked) [Example 3, N-(2-aminoethyl)-3′-[1-{N-(1-benzylpiperidin-4-yl)-N-(4-chlorophenylacetyl)amino}ethyl][1,1′-biphenyl]-2-carboxamide dihydrochloride], the “Binding Inhibitory Ratio” value was 97%. In the case of `CC(c1cccc(-c2ccccc2C(=O)NCCN)c1)N(C(=O)Cc1cccc(Cl)c1)C1CCN(Cc2ccccc2)CC1` (centres unmarked) [Example 4, N-(2-aminoethyl)-3′-[1-(N-(1-benzylpiperidin-4-yl)-N-(3-chlorophenylacetyl)amino}ethyl][1,1′-biphenyl]-2-carboxamide dihydrochloride], the “Binding Inhibitory Ratio” value stood at 92%.

Turning to `CC(c1cccc(-c2ccccc2C(=O)NCCN)c1)N(C(=O)Cc1ccc(Cl)c(Cl)c1)C1CCN(Cc2ccccc2)CC1` (centres unmarked) [Example 9, N-(2-aminoethyl)-3′-[1-{N-(1-benzylpiperidin-4-yl)-N-(3,4-dichlorophenylacetyl)amino}ethyl][1,1′-biphenyl]-2-carboxamide dihydrochloride], the “Binding Inhibitory Ratio” value turned out to be 100%.
